Results from US12559506B2, “Indazole based compounds and associated methods of use” (Arvinas Operations, Inc., priority 2021, dated 2026).

Target: T1, LRRK2 (endogenous, HiBit tagged) (Homo sapiens, UniProt Q5S007)
T1 construct: endogenous in cells; host or cells: HEK293 cells with HiBit knock-in at the endogenous LRRK2 locus, stably expressing firefly luciferase
Test: Endogenous LRRK2 degradation assay, endogenous gene C-terminally HiBit-tagged in HEK293 cells (Nano-Glo Dual Luciferase)
Type: cell-based
Details: endogenous HiBit-tagged LRRK2 in HEK293 cells, 24 hours treatment; for DC50: read-out: Endogenous WT DC50; for Dmax: read-out: Endogenous WT Dmax
Method in brief: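 LRRK2-HiBit quantified via Nano-Glo Dual Luciferase in HEK293 knock-in cells co-expressing firefly luciferase, after 24 h exposure to compound (1 μM final top, 1:3, 11 points). Values normalised to DMSO median per plate and curve-fitted; Alamar Blue viability run alongside.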

T1 sequence (Q5S007 whole entry): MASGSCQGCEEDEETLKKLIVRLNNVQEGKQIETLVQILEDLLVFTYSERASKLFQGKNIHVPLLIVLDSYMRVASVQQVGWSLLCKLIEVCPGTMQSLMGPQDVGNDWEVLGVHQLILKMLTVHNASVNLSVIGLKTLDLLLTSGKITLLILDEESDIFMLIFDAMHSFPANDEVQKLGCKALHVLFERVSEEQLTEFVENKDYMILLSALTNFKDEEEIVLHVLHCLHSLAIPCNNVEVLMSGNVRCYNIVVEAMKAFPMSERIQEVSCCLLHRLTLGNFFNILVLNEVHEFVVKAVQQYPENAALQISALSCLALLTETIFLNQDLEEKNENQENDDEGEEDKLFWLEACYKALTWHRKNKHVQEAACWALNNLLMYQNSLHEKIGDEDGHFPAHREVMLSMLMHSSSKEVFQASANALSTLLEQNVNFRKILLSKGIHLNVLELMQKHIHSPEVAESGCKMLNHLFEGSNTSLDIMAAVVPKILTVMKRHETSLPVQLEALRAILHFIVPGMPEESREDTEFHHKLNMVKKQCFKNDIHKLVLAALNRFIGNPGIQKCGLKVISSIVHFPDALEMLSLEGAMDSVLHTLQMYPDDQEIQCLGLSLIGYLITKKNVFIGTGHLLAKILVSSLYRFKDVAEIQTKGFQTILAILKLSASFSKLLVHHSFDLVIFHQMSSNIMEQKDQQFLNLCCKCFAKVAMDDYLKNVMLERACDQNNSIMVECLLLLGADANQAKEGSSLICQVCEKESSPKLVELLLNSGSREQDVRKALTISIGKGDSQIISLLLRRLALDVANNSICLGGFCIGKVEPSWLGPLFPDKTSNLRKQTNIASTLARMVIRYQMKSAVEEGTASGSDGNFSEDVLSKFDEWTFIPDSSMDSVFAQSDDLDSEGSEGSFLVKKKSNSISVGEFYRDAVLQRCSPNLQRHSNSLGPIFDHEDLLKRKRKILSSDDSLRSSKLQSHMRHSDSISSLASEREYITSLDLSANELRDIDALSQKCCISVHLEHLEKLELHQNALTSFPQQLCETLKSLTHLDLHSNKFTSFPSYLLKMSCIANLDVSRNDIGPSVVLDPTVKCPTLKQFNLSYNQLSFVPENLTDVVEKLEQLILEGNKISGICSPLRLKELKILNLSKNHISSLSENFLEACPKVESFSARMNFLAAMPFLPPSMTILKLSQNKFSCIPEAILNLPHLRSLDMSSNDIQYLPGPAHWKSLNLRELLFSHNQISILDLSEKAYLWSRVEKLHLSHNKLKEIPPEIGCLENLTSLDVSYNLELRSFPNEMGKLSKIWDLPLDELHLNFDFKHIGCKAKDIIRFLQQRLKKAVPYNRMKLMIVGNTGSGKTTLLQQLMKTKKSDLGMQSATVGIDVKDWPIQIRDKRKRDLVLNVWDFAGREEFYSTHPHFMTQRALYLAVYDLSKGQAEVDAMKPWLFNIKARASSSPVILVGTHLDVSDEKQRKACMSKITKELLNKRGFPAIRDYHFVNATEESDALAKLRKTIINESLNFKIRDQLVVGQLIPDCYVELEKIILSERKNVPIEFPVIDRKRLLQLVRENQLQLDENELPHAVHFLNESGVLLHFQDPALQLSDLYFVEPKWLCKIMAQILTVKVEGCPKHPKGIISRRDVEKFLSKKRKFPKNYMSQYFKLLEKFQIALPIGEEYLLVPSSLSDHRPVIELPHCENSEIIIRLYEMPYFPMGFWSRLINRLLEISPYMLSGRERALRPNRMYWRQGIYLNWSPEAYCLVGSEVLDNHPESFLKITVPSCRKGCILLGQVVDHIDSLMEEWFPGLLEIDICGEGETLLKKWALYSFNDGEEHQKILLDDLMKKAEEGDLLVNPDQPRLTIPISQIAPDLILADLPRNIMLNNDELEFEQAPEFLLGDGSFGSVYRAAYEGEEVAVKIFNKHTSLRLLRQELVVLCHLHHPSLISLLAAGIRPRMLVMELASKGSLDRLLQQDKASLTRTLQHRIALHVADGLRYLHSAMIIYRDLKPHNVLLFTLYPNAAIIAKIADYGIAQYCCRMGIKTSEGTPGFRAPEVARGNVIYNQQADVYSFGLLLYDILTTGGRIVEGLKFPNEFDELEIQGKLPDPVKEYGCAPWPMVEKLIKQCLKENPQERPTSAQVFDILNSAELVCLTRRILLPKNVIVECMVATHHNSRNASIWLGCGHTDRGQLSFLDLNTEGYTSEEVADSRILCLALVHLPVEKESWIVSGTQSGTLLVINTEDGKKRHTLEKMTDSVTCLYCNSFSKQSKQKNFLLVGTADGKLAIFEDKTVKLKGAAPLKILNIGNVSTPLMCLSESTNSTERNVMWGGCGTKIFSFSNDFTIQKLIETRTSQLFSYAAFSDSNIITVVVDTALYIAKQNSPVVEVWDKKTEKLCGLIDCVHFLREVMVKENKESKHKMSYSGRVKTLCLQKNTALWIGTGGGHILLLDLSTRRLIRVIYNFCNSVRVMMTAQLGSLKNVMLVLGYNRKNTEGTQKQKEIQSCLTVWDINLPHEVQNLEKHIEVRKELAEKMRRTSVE

Row | SMILES | DC50 [nM] | Dmax [%]
1 | CC1(Oc2ccc3[nH]nc(-c4cc(N5CCC(CN6C[C@@H]7C[C@H]6CN7CC6CCN(c7ccc8c(c7F)CN(C7CCC(=O)NC7=O)C8=O)CC6)CC5)ncn4)c3c2)CC1 (stereo partly drawn) [Compound 230, 3-[4-fluoro-5-(4-{[(1S,4S)-5-[(1-{6-[5-(1-methylcyclopropoxy)-1H-indazol-3-yl]pyrimidin-4-yl}piperidin-4-yl)methyl]-2,5-diazabicyclo[2.2.1]heptan-2-yl]methyl}piperidin-1-yl)-1-oxo-2,3-dihydro-1H-isoindol-2-yl]piperidine-2,6-dione] | < 10 | 50 to 70
2 | CC1(Oc2ccc3[nH]nc(-c4cc(N5CCC(CN6CCC(F)(CC7CCN(c8ccc9c(c8F)CN(C8CCC(=O)NC8=O)C9=O)CC7)CC6)CC5)ncn4)c3c2)CC1 (stereo not drawn) [Compound 231, 3-[4-fluoro-5-[4-[[4-fluoro-1-[[1-[6-[5-(1-methylcyclopropoxy)-1H-indazol-3-yl]pyrimidin-4-yl]-4-piperidyl]methyl]-4-piperidyl]methyl]-1-piperidyl]-1-oxo-isoindolin-2-yl]piperidine-2,6-dione] | < 10 | 50 to 70
3 | CC1(Oc2cc3c(-c4cc(N5CCC(CN6CCC(F)(CC7CCN(c8ccc9c(c8F)CN(C8CCC(=O)NC8=O)C9=O)CC7)CC6)CC5)ncn4)n[nH]c3cc2F)CC1 (stereo not drawn) [Compound 232, 3-{4-fluoro-5-[4-({4-fluoro-1-[(1-{6-[6-fluoro-5-(1-methylcyclopropoxy)-1H-indazol-3-yl]pyrimidin-4-yl}piperidin-4-yl)methyl]piperidin-4-yl}methyl)piperidin-1-yl]-1-oxo-2,3-dihydro-1H-isoindol-2-yl}piperidine-2,6-dione] | < 10 | 50 to 70
4 | CC1(Oc2cc3c(-c4cc(N5CCC(O[C@H]6C[C@@H](OC7CCN(c8ccc9c(c8F)CN(C8CCC(=O)NC8=O)C9=O)CC7)C6)CC5)ncn4)n[nH]c3cn2)CC1 (stereo partly drawn) [Compound 233, 3-(4-fluoro-1-oxo-5-{4-[(1s,3s)-3-[(1-{6-[5-(1-methylcyclopropoxy)-1H-pyrazolo[3,4-c]pyridin-3-yl]pyrimidin-4-yl}piperidin-4-yl)oxy]cyclobutoxy]piperidin-1-yl}-2,3-dihydro-1H-isoindol-2-yl)piperidine-2,6-dione] | < 10 | 50 to 70
5 | CC1(Oc2ccc3n[nH]c(-c4cc(N5CCN(C[C@H]6CC[C@H](OC7CCN(c8ccc9c(c8F)CN(C8CCC(=O)NC8=O)C9=O)CC7)CC6)CC5)ncn4)c3c2)CC1 (stereo partly drawn) [Compound 234, 3-[4-fluoro-5-[4-[4-[[4-[6-[5-(1-methylcyclopropoxy)-2H-indazol-3-yl]pyrimidin-4-yl]piperazin-1-yl]methyl]cyclohexoxy]-1-piperidyl]-1-oxo-isoindolin-2-yl]piperidine-2,6-dione] | < 10 | 50 to 70
6 | CC1(Oc2ccc3n[nH]c(-c4cc(N5CCN(C[C@H]6CC[C@H](OC7CCN(c8cc9c(cc8F)C(=O)N(C8CCC(=O)NC8=O)C9)CC7)CC6)CC5)ncn4)c3c2)CC1 (stereo partly drawn) [Compound 235, 3-[6-fluoro-5-[4-[4-[[4-[6-[5-(1-methylcyclopropoxy)-2H-indazol-3-yl]pyrimidin-4-yl]piperazin-1-yl]methyl]cyclohexoxy]-1-piperidyl]-1-oxo-isoindolin-2-yl]piperidine-2,6-dione] | < 10 | 50 to 70
7 | CC1(Oc2ccc3[nH]nc(-c4cc(N5CCC(CN6CCN(CC7CCN(c8ccc9c(c8F)CN(C8CCC(=O)NC8=O)C9=O)CC7)C(C)(C)C6)CC5)ncn4)c3c2)CC1 (stereo not drawn) [Compound 236, 3-[5-[4-[[2,2-dimethyl-4-[[1-[6-[5-(1-methylcyclopropoxy)-1H-indazol-3-yl]pyrimidin-4-yl]-4-piperidyl]methyl]piperazin-1-yl]methyl]-1-piperidyl]-4-fluoro-1-oxo-isoindolin-2-yl]piperidine-2,6-dione] | < 10 | 50 to 70
8 | CC1(Oc2ccc3[nH]nc(-c4cc(N5CCC(CN6C7CC6CN(CC6CCN(c8ccc9c(c8F)CN(C8CCC(=O)NC8=O)C9=O)CC6)C7)CC5)ncn4)c3c2)CC1 (stereo not drawn) [Compound 237, 3-{4-fluoro-5-[4-({6-[(1-{6-[5-(1-methylcyclopropoxy)-1H-indazol-3-yl]pyrimidin-4-yl}piperidin-4-yl)methyl]-3,6-diazabicyclo[3.1.1]heptan-3-yl}methyl)piperidin-1-yl]-1-oxo-2,3-dihydro-1H-isoindol-2-yl}piperidine-2,6-dione] | < 10 | ≥ 70
9 | COc1c(N2CCC(O[C@H]3CC[C@H](CN4CCN(c5cc(-c6[nH]nc7ccc(OC8(C)CC8)cc67)ncn5)CC4)CC3)CC2)ccc2c1CN(C1CCC(=O)NC1=O)C2=O (stereo partly drawn) [Compound 238, 3-[4-methoxy-1-oxo-5-(4-{[(1r,4r)-4-[(4-{6-[5-(1-methylcyclopropoxy)-2H-indazol-3-yl]pyrimidin-4-yl}piperazin-1-yl)methyl]cyclohexyl]oxy}piperidin-1-yl)-2,3-dihydro-1H-isoindol-2-yl]piperidine-2,6-dione] | < 10 | 50 to 70
10 | CC1(Oc2ccc3[nH]nc(-c4cc(N5CCC(CN6CCN(CC7CCN(c8ccc9c(c8Cl)CN(C8CCC(=O)NC8=O)C9=O)CC7)CC6)CC5)ncn4)c3c2)CC1 (stereo not drawn) [Compound 239, 3-[4-chloro-5-[4-[[4-[[1-[6-[5-(1-methylcyclopropoxy)-1H-indazol-3-yl]pyrimidin-4-yl]-4-piperidyl]methyl]piperazin-1-yl]methyl]-1-piperidyl]-1-oxo-isoindolin-2-yl]piperidine-2,6-dione] | < 10 | ≥ 70
11 | CC1(Oc2ccc3[nH]nc(-c4cc(N5CCC(CN6CCN(CC7CCN(c8ccc9c(c8)C(=O)N(C8CCC(=O)NC8=O)C9)CC7)CC6)CC5)ncn4)c3c2)CC1 (stereo not drawn) [Compound 241, 3-[6-[4-[[4-[[1-[6-[5-(1-methylcyclopropoxy)-1H-indazol-3-yl]pyrimidin-4-yl]-4-piperidyl]methyl]piperazin-1-yl]methyl]-1-piperidyl]-1-oxo-isoindolin-2-yl]piperidine-2,6-dione] | < 10 | 50 to 70
12 | CC1(Oc2ccc3[nH]nc(-c4cc(N5CCC(CN6CCC(F)(CC7CCN(c8c(F)cc9c(c8F)CN(C8CCC(=O)NC8=O)C9=O)CC7)CC6)CC5)ncn4)c3c2)CC1 (stereo not drawn) [Compound 242, 3-{4,6-difluoro-5-[4-({4-fluoro-1-[(1-{6-[5-(1-methylcyclopropoxy)-1H-indazol-3-yl]pyrimidin-4-yl}piperidin-4-yl)methyl]piperidin-4-yl}methyl)piperidin-1-yl]-1-oxo-2,3-dihydro-1H-isoindol-2-yl}piperidine-2,6-dione] | < 10 | 50 to 70
13 | CC1(Oc2ccc3[nH]nc(-c4cc(N5CCN(C[C@H]6CC[C@H](OC7CCN(c8ccc9c(c8Cl)CN(C8CCC(=O)NC8=O)C9=O)CC7)CC6)CC5)ncn4)c3c2)CC1 (stereo partly drawn) [Compound 243, 3-[4-chloro-1-oxo-5-(4-{[(1r,4r)-4-[(4-{6-[5-(1-methylcyclopropoxy)-1H-indazol-3-yl]pyrimidin-4-yl}piperazin-1-yl)methyl]cyclohexyl]oxy}piperidin-1-yl)-2,3-dihydro-1H-isoindol-2-yl]piperidine-2,6-dione] | < 10 | 50 to 70
14 | CC1(Oc2ccc3n[nH]c(-c4cc(N5CCC(O[C@H]6CC[C@H](OC7CCN(c8cc9c(cc8F)C(=O)N(C8CCC(=O)NC8=O)C9)CC7)CC6)CC5)ncn4)c3c2)CC1 (stereo partly drawn) [Compound 244, 3-[6-fluoro-1-oxo-5-(4-{[(1r,4r)-4-[(1-{6-[5-(1-methylcyclopropoxy)-2H-indazol-3-yl]pyrimidin-4-yl}piperidin-4-yl)oxy]cyclohexyl]oxy}piperidin-1-yl)-2,3-dihydro-1H-isoindol-2-yl]piperidine-2,6-dione] | < 10 | 50 to 70
15 | COc1c(N2CCN(CC3(F)CCN(CC4CCN(c5cc(-c6[nH]nc7ccc(OC8(C)CC8)cc67)ncn5)CC4)CC3)CC2)ccc2c1CN(C1CCC(=O)NC1=O)C2=O (stereo not drawn) [Compound 246, 3-{5-[4-({4-fluoro-1-[(1-{6-[5-(1-methylcyclopropoxy)-2H-indazol-3-yl]pyrimidin-4-yl}piperidin-4-yl)methyl]piperidin-4-yl}methyl)piperazin-1-yl]-4-methoxy-1-oxo-2,3-dihydro-1H-isoindol-2-yl}piperidine-2,6-dione] | < 10 | 50 to 70
16 | CC1(Oc2cc3c(-c4cc(N5CCC(CN6CCN(CC7CCN(c8ccc9c(c8F)CN(C8CCC(=O)NC8=O)C9=O)CC7)CC6(C)C)CC5)ncn4)n[nH]c3cn2)CC1 (stereo not drawn) [Compound 247, 3-{5-[4-({3,3-dimethyl-4-[(1-{6-[5-(1-methylcyclopropoxy)-1H-pyrazolo[3,4-c]pyridin-3-yl]pyrimidin-4-yl}piperidin-4-yl)methyl]piperazin-1-yl}methyl)piperidin-1-yl]-4-fluoro-1-oxo-2,3-dihydro-1H-isoindol-2-yl}piperidine-2,6-dione] | < 10 | 50 to 70
17 | COc1c(N2CCC(O[C@H]3CC[C@H](OC4CCN(c5cc(-c6n[nH]c7ccc(OC8(C)CC8)cc67)ncn5)CC4)CC3)CC2)ccc2c1CN(C1CCC(=O)NC1=O)C2=O (stereo partly drawn) [Compound 248, 3-[4-methoxy-1-oxo-5-(4-{[(1r,4r)-4-[(1-{6-[5-(1-methylcyclopropoxy)-1H-indazol-3-yl]pyrimidin-4-yl}piperidin-4-yl)oxy]cyclohexyl]oxy}piperidin-1-yl)-2,3-dihydro-1H-isoindol-2-yl]piperidine-2,6-dione] | < 10 | 50 to 70
18 | CC1(Oc2ccc3[nH]nc(-c4cc(N5CCC(O[C@H]6CC[C@H](CN7CCN(c8ccc9c(c8Cl)CN(C8CCC(=O)NC8=O)C9=O)CC7)CC6)CC5)ncn4)c3c2)CC1 (stereo partly drawn) [Compound 249, 3-[4-chloro-1-oxo-5-(4-{[(1r,4r)-4-[(1-{6-[5-(1-methylcyclopropoxy)-1H-indazol-3-yl]pyrimidin-4-yl}piperidin-4-yl)oxy]cyclohexyl]methyl}piperazin-1-yl)-2,3-dihydro-1H-isoindol-2-yl]piperidine-2,6-dione] | < 10 | 50 to 70
